Reference: paper PMC10944509, “Structural and mechanistic insights into activation of the human RNA ligase RTCB by Archease” (Nature Communications, 2024)
One block for each compound: values may come before it.

Assays:
human RTCB (human) = human RTCB (human) (UniProt Q9Y3I0)
[1] = target: T1, human RTCB-Archease complex (Homo sapiens, UniProt Q8IWT0+Q9Y3I0); experiment: X-ray crystal structure, […] Å; type: binding; details: covalent; phosphoramidate with RTCB H428, formed from GTP in co-crystallization; Mn2+ (sites A, C); 291 K
T1 construct: full-length RTCB from Sf21 insect cells (His6 tag, TEV-cleaved optionally) with Archease isoform 1 from E. coli (N-terminal His6, thrombin site, tag removal optional); 1:1 complex
T1 sequence (Q9Y3I0 1-505): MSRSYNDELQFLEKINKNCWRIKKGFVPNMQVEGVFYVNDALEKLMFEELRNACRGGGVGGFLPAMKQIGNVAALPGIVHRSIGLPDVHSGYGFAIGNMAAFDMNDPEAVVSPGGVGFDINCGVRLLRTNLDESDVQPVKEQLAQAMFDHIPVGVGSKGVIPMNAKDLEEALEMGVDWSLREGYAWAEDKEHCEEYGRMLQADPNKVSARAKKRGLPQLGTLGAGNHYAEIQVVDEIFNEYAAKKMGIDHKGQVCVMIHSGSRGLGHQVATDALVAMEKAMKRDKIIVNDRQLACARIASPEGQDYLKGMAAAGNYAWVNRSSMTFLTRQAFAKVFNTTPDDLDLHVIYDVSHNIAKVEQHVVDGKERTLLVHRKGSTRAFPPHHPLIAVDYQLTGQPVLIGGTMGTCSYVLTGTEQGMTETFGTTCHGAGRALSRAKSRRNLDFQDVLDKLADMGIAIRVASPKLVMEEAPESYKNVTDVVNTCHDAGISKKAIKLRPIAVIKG
T1 sequence (Q8IWT0 1-167): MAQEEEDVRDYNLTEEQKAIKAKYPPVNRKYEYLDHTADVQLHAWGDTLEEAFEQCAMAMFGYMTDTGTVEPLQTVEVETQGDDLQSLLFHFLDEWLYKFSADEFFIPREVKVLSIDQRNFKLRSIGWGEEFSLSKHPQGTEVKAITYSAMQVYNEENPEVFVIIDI

[2] = target: T1, human RTCB-Archease complex; experiment: radioactive guanylylation assay, gel autoradiography; type: biochemical; details: covalent; labelled compound (alpha-32P-GTP 80 nM); RTCB 1 µM, Archease 1 µM, 0.5 mM MnCl2, pH 7.5, 30 °C
[3] = target: T1, human RTCB-Archease complex; experiment: X-ray crystal structure, […] Å; type: binding; details: Mn2+ (sites A, B, C); RTCB active site, gamma-phosphate coordinated by Archease-bound Mn2+; non-hydrolyzable GTP analog; 291 K

apparent rate constant of XBP1 intron circularization by RTCB (250 nM) with 1 uM Archease, GTP and Mn2+; no ligated product without Archease (human RTCB (human)): 0.015 min⁻¹
Compound: human Archease (isoform 1) (from UniProt Q8IWT0 1-167) (natural protein)

Compound: Nc1nc2c(ncn2[C@@H]2O[C@H](COP(=O)(O)O)[C@@H](O)[C@H]2O)c(=O)[nH]1 [GMP]
X-ray crystal structure, 2.2 Å [1]: GTP reacted with the active site histidine H428 to form the guanylylated RTCB-H428-GMP intermediate

Compound: Nc1nc2c(ncn2[C@@H]2O[C@H](COP(=O)(O)OP(=O)(O)OP(=O)(O)O)[C@@H](O)[C@H]2O)c(=O)[nH]1 [GTP]
radioactive guanylylation assay, gel autoradiography [2]: We detected the formation of guanylylated RTCB only in the presence of Archease

Compound: Nc1nc2c(ncn2[C@@H]2O[C@H](COP(=O)(O)CP(=O)(O)OP(=O)(O)O)[C@@H](O)[C@H]2O)c(=O)[nH]1 [GMPCPP, guanosine-5’-[(α,β)-methyleno]triphosphate]
X-ray crystal structure, 2.3 Å [3]: RTCB-Archease complex with a well-resolved GMPCPP molecule in the active site of RTCB
